# pIC50, pKi: −log10 of the molar value. Read-outs that look alike come from different tables or passages of the source.
# Assays:
# [1] = tested on: H929 cells; assay: Cell viability assay (H929 10 FBS); format: cell-based; conditions: Homo sapiens, NCI-H929, 24 hours, read-out: H929_10FBS IC50
# Summary of the method: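 H929 cells, 4000/well, in RPMI 1640 with 10% FBS, sodium pyruvate, HEPES and glucose were exposed to compound 24 h at 37 °C. Viability read as luminescence after 30-60 min at RT with CellTiter-Glo or ATPlite 1 Step.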
# [2] = molecular target: MCL-1 (Homo sapiens (Human), UniProt Q07820); assay: Cell free Mcl-1:Bim affinity assay (fluorescence polarization competition); format: binding; conditions: 15 nM MCL-1, 5 nM FITC-Bim, 1 hour at room temperature, read-out: BIM_Ki
# Summary of the method: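 Compounds competed with FITC-labelled Bim peptide (5 nM) for MCL-1 (15 nM) in HEPES/NaCl buffer with 1% DMSO, 1 h at room temperature. Fluorescence polarization (535 nm emission) gave % inhibition versus DMSO and positive controls; IC50 from 10-point curves, converted to Ki by the Nikolovska-Coleska equation.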
# Chain of MCL-1 (Q07820 whole entry): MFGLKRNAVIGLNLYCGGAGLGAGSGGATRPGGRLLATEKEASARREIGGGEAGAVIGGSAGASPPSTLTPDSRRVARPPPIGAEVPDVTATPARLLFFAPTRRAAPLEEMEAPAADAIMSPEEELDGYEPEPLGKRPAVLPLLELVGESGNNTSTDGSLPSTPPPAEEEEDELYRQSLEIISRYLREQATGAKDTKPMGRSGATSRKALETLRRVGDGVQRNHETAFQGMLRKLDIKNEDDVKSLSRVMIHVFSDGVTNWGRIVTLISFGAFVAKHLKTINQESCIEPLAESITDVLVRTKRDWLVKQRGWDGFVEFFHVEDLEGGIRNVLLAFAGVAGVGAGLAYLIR
SMILES,pIC50 [1],pKi ([2]; class symbols),pKi ([2]; numeric values)
"CN(C(=O)O[C@H]1/C=C/COC2(CCC2)C(=O)NS(=O)(=O)c2ccc3c(c2)N(C[C@@H]2CC[C@H]21)C[C@@]1(CCCc2cc(Cl)ccc21)CO3)C1CCOCC1 [Example 236, [(3R,6R,7S,8E,22S)-6′-Chloro-12,12-(1,3-propylene)-13,15,15-trioxo-spiro[11,20-dioxa-15-thia-1,14-diazatetracyclo[14.7.2.03,6.019,24]pentacosa-8,16,18,24-tetraene-22,1′-tetralin]-7-yl] N-methyl-N-tetrahydropyran-4-yl-carbamate]",> 6.30,> 9.00,
"CN[C@H]1CCN(C(=O)O[C@H]2/C=C/COC(C)(C)C(=O)NS(=O)(=O)c3ccc4c(c3)N(C[C@@H]3CC[C@H]32)C[C@@]2(CCCc3cc(Cl)ccc32)CO4)C1 [Example 163, [(3R,6R,7S,8E,22S)-6′-Chloro-12,12-dimethyl-13,15,15-trioxo-spiro[11,20-dioxa-15-thia-1,14-diazatetracyclo[14.7.2.03,6.019,24]pentacosa-8,16,18,24-tetraene-22,1′-tetralin]-7-yl] (3S)-3-(methylamino)pyrrolidine-1-carboxylate]",> 6.30,> 9.00,
"CCNC(=O)O[C@H]1/C=C/CN(C)C(C)(C)C(=O)NS(=O)(=O)c2ccc3c(c2)N(C[C@@H]2CC[C@H]21)C[C@@]1(CCCc2cc(Cl)ccc21)CO3 [Example 204, [(3R,6R,7S,8E,22S)-6′-Chloro-11,12,12-trimethyl-13,15,15-trioxo-spiro[20-oxa-15-thia-1,11,14-triazatetracyclo[14.7.2.03,6.019,24]pentacosa-8,16,18,24-tetraene-22,1′-tetralin]-7-yl] N-ethylcarbamate]",> 6.30,> 9.00,
"CN(C)C(=O)O[C@@H]1/C=C/CNC(C)(C)C(=O)NS(=O)(=O)c2ccc3c(c2)N(C[C@@H]2CC[C@H]21)C[C@@]1(CCCc2cc(Cl)ccc21)CO3 [Example 198, [(3R,6R,7R,8E,22S)-6′-Chloro-12,12-dimethyl-13,15,15-trioxo-spiro[20-oxa-15-thia-1,11,14-triazatetracyclo[14.7.2.0˜3,6.0˜19,24]pentacosa-8,16,18,24-tetraene-22,1′-tetralin]-7-yl] N,N-dimethylcarbamate]",> 6.30,> 9.00,
"COC(=O)N(C)[C@H]1/C=C/COC(C)(C)C(=O)NS(=O)(=O)c2ccc3c(c2)N(C[C@@H]2CC[C@H]21)C[C@@]1(CCCc2cc(Cl)ccc21)CO3 [Example 254, Methyl N-methyl-N-[(3R,6R,7S,8E,22S)-6′-chloro-12,12-dimethyl-13,15,15-trioxo-spiro[11,20-dioxa-15-thia-1,14-diazatetracyclo[14.7.2.03,6.019,24]pentacosa-8,16(25),17,19(24)-tetraene-22,1′-tetralin]-7-yl]carbamate]",< 6.00,7.00 to 9.00,
"CON(C)CCO[C@H]1/C=C/COC(C)(C)C(=O)NS(=O)(=O)c2ccc3c(c2)N(C[C@@H]2CC[C@H]21)C[C@@]1(CCCc2cc(Cl)ccc21)CO3 [Example 267, (3R,6R,7S,8E,22S)-6′-Chloro-7-[2-[methoxy(methyl)amino]ethoxy]-12,12-dimethyl-15,15-dioxo-spiro[11,20-dioxa-15-thia-1,14-diazatetracyclo[14.7.2.03,6.019,24]pentacosa-8,16,18,24-tetraene-22,1′-tetralin]-13-one]",> 6.00,7.00 to 9.00,
"O=C1Cc2cc(OCCN3CCOCC3)cc(c2)OC[C@@H]2CC[C@H]2CN2C[C@@]3(CCCc4cc(Cl)ccc43)COc3ccc(cc32)S(=O)(=O)N1 [Example 105, (3R,6R,24S)-6′-Chloro-11-(2-morpholinoethoxy)-17,17-dioxo-spiro[8,22-dioxa-17-thia-1,16-diazapentacyclo[16.7.2.19,13.03,6.021,26]octacosa-9(28),10,12,18(27),19,21(26)-hexaene-24,1′-tetralin]-15-one]",< 6.00,7.00 to 9.00,
"COC1CN(C(=O)CO[C@H]2/C=C/COC(C)(C)C(=O)NS(=O)(=O)c3ccc4c(c3)N(C[C@@H]3CC[C@H]32)C[C@@]2(CCCc3cc(Cl)ccc32)CO4)C1 [Example 280, (3R,6R,7S,8E,22S)-6′-Chloro-7-[2-(3-methoxyazetidin-1-yl)-2-oxo-ethoxy]-12,12-dimethyl-15,15-dioxo-spiro[11,20-dioxa-15-thia-1,14-diazatetracyclo[14.7.2.03,6.019,24]pentacosa-8,16,18,24-tetraene-22,1′-tetralin]-13-one]",> 6.30,> 9.00,
"CO[C@@H]1/C=C/CN(C)[C@@H](C(C)C)C(=O)NS(=O)(=O)c2ccc3c(c2)N(C[C@@H]2CC[C@H]21)C[C@@]1(CCCc2cc(Cl)ccc21)CO3 [Example 129, (3R,6R,7R,8E,12S,22S)-6′-Chloro-7-methoxy-11-methyl-12-isopropyl-15,15-dioxo-spiro[20-oxa-15-thia-1,11,14-triazatetracyclo[14.7.2.03,6.019,24]pentacosa-8,16,18,24-tetraene-22,1′-tetralin]-13-one]",< 6.00,7.00 to 9.00,
"CC1(C)OC/C=C/[C@H](OCCN2CCC2)[C@@H]2CC[C@H]2CN2C[C@@]3(CCCc4cc(Cl)ccc43)COc3ccc(cc32)S(=O)(=O)NC1=O [Example 262, (3R,6R,7S,8E,22S)-7-[2-(Azetidin-1-yl)ethoxy]-6′-chloro-12,12-dimethyl-15,15-dioxo-spiro[11,20-dioxa-15-thia-1,14-diazatetracyclo[14.7.2.03,6.019,24]pentacosa-8,16,18,24-tetraene-22,1′-tetralin]-13-one]",> 6.30,> 9.00,
"CN1C/C=C/[C@H](OC(=O)N[C@H]2CCOC2)[C@@H]2CC[C@H]2CN2C[C@@]3(CCCc4cc(Cl)ccc43)COc3ccc(cc32)S(=O)(=O)NC(=O)C12CCC2 [Example 295, [(3R,6R,7S,8E,22S)-6′-Chloro-11-methyl-12,12-(1,3-propylene)-13,15,15-trioxo-spiro[20-oxa-15-thia-1,11,14-triazatetracyclo[14.7.2.03,6.019,24]pentacosa-8,16,18,24-tetraene-22,1′-tetralin]-7-yl] N-[(3S)-tetrahydrofuran-3-yl]carbamate]",< 6.00,7.00 to 9.00,
"CC1(C)OC/C=C/[C@H](OC(=O)NC2CC2)[C@@H]2CC[C@H]2CN2C[C@@]3(CCCc4cc(Cl)ccc43)COc3ccc(cc32)S(=O)(=O)NC1=O [Example 188, [(3R,6R,7S,8E,22S)-6′-Chloro-12,12-dimethyl-13,15,15-trioxo-spiro[11,20-dioxa-15-thia-1,14-diazatetracyclo[14.7.2.03,6.019,24]pentacosa-8,16,18,24-tetraene-22,1′-tetralin]-7-yl] N-cyclopropylcarbamate]",> 6.30,> 9.00,
"CC(=O)NS(=O)(=O)c1ccc2c(c1)N(CC1CCCCC1)CC1(CCCc3cc(Cl)ccc31)CO2 (stereo not shown) [Example 3, N-[6′-Chloro-5-(cyclohexylmethyl)spiro[2,4-dihydro-1,5-benzoxazepine-3,1′-tetralin]-7-yl]sulfonylacetamide]",< 6.00,,6.84
"Cc1ccc(CC(=O)NS(=O)(=O)c2ccc3c(c2)N(CC2CCC2)C[C@@]2(CCCc4cc(Cl)ccc42)CO3)cn1 [Example 17, 2-(6-Methyl-3-pyridyl)-N-[(3S)-6′-chloro-5-(cyclobutylmethyl)spiro[2,4-dihydro-1,5-benzoxazepine-3,1′-tetralin]-7-yl]sulfonyl-acetamide]",< 6.00,,8.13

# From patent US11130769B2 (Prelude Therapeutics Incorporated, priority 2018, dated 2021)
